Consider one molecule from PMC12416277, “Phytochemical alkaloids orchestrate immunometabolism against viral infections” (National Science Review, 2025).

One assay deals with STAT1. Nature of the assay: Confocal analysis of nuclear localization of STAT1 in A549 cells. The format is cell-based.
The next assay concerns VSV. The format is cell-based, vesicular stomatitis virus (VSV).
The subject of a further assay is sgRNA-Npc1 cells. The format is cell-based, mouse.
The test system of assay [1] is H1N1. Nature of the assay: Dose-response of infectivity, H1N1 in L929 cells. The format is cell-based. Particulars: Influenza A virus.
Another assay deals with T1, NPC1 (Homo sapiens, UniProt O15118).
T1 sequence (O15118 23-1278): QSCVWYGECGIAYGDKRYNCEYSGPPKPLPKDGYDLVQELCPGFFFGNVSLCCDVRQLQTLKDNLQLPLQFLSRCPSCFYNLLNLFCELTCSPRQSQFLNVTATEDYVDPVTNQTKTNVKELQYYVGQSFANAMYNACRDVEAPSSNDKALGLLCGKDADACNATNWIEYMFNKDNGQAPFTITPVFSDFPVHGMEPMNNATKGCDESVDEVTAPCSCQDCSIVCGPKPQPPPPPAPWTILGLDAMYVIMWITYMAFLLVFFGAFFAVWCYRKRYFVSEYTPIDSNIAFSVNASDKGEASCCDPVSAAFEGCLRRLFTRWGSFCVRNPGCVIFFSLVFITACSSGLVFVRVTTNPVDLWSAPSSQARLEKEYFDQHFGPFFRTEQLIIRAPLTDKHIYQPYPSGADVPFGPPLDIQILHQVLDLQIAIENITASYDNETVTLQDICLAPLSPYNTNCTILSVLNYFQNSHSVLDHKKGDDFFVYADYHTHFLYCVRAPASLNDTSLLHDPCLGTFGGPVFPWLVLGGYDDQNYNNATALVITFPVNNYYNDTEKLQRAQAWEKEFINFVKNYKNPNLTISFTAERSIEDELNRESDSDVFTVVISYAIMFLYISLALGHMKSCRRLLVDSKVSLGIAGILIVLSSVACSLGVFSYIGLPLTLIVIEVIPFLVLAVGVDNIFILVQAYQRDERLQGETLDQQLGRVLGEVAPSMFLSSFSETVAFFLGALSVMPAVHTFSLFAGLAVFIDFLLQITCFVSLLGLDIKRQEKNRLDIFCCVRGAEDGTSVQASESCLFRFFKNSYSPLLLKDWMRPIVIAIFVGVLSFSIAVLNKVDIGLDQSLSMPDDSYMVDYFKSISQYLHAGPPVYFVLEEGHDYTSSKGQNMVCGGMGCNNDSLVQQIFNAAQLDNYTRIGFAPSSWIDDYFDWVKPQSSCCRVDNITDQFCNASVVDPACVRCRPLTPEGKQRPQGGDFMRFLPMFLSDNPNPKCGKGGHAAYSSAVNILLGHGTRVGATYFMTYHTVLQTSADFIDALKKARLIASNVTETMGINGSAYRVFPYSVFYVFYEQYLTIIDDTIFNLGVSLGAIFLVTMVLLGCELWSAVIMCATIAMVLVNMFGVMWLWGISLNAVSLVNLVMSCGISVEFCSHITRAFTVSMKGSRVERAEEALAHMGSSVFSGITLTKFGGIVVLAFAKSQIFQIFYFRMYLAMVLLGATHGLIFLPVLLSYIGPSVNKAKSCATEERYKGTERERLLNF
In kind it is binding. Particulars: read-out: SPR KD.

For assay [2], the system named is H1N1. Briefly: Time-of-drug-addition assay, H1N1 in A549 cells. The conditions noted are these: pre-treatment, co-treatment and post-treatment. In kind it is cell-based, influenza virus A (H1N1).
The test system of the next assay is HSV-1. In kind it is cell-based, herpes simplex virus 1 (HSV-1).
Assay [3] deals with NPC1 and STING in lysosomal microdomains. Nature of the assay: Lysosome immunoprecipitation with density gradient ultracentrifugation (LysoIP-DEG) in HepG2 cells. The format is cell-based. Here is the method:
Figure 5. The dual functions of Tet to resist viral entry and activate antiviral immunity through the NPC1/STING axis. (a, b) Confocal analysis of Bio-Tet with CD63 (a) or NPC1 (b) in A549 cells, scale bar: 10 μm. (c) Binding affinity analysis of NPC1 with itraconazole, U18666A, or Tet was determined by SPR. (d, e) CETSA (d) and DARTS (e) analysis of NPC1 with Tet in HepG2 cells. (f) Streptavidin-covered beads with biotin, Bio-Tet, Bio-Tet + Tet were incubated with cell lysates. As indicated, the levels of NPC1 protein in bound proteins (IP) and total proteins (Input) were determined using immunoblotting. (g) Viral mRNA expression in siNPC1-transfected cells treated with Tet. (h) Viral mRNA expression in sgRNA-EV, sgRNA Npc1, and sgRNA Npc1 cells transfected with Flag-NPC1 treated with Tet. (i) Ifit1 and Ifit2 mRNA expression in sgRNA-EV, sgRNA Npc1, and sgRNA Npc1 cells transfected with Flag-NPC1 stimulated with DMXAA and Tet. (j) Schematic of LysoIP-DEG. (k) Immunoblotting analysis of the indicated proteins in LysoIP-DEG in Tet-treated HepG2 cells. (l) Schematic model of NPC1/STING axis-mediated viral inhibition by Tet. […] P values were calculated using one-way ANOVA (g, h, i). […]
The LysoIP-DEG was performed as previously described with minor modifications. […] The collected samples were dissolved in 50 µL 2 × SDS loading buffer and then assessed through western blotting analysis.

The test system of assay [4] is cholesterol metabolism genes. In kind it is cell-based, human.

Take `COc1ccc2cc1Oc1ccc(cc1)C[C@H]1c3cc(c(OC)cc3CCN1C)Oc1c(OC)c(OC)cc3c1[C@H](C2)N(C)CC3` [Tet, tetrandrine]: in the assay with STAT1, the STAT1 nucleus translocation entry was “promoted STAT1 nucleus translocation”. In addition, the “VSV replication (VSV-G protein, immunoblotting)” value in the assay on VSV was “inhibited”. Further, the antiviral effects entry in the assay on sgRNA-Npc1 cells was “attenuated but restored with Flag-tagged NPC1 reintroduction”. Further, it took 0.541 µM to reach a half-maximal effect in the assay with H1N1 [1] (EC50). Also, the Kd at NPC1 was determined as 22.2 µM. Also, the H1N1 infection result with H1N1 [2] was “effectively suppressed”. For the same molecule, in the assay on HSV-1, the “antiviral effect against HSV-1” value is listed as “markedly reduced”. Besides, the “NPC1 and STING expression in lysosomal microdomains” value in assay [3] is “enhanced NPC1 and STING expression in lysosomal microdomains after 6 hours”. In addition, in [4], the “expression of genes involved in cholesterol synthesis (SREBF2, HMGCR, SQLE, SREBP1C, DHCR24, DHCR7, FASN) and absorption (LDLR)” value is given as “increased expression”; the “expression of genes related to cholesterol transport (ABCA1, ABCG1), oxidation (CYP27A1, CYP46A1) or esterification (ACAT1, ACAT2)” value was “did not affect the expression”.

The EC50 is the midpoint of the concentration-response curve. A low value points to higher potency in that assay. By Kd is commonly meant a measure of binding affinity in units of concentration.
